Here are results for 10 molecules from patent publication US9650361B2, “N-(pyridin-2-yl)pyrimidin-4-amine derivatives containing a sulfoximine group” (BAYER PHARAM AKTIENGESELLSCHAFT, priority 2012, dated 2017).

For one assay, the target named is T1, CDK9/CycT1 (Homo sapiens, UniProt P50750).
T1 construct: Recombinant full-length His-tagged human CDK9 and CycT1; His; purchased Invitrogen PV4131; host or cells: insect cells
Kind of assay: CDK9/CycT1 high ATP kinase assay (Method 1b). The assay is classed as biochemical. To be noted: 2 mM ATP. The method, then:
1b. CDK9/CycT1 High ATP Kinase Assay
CDK9/CycT1-inhibitory activity of compounds of the present invention at a high ATP concentration after preincubation of enzyme and test compounds was quantified employing the CDK9/CycT1 TR-FRET assay as described in the following paragraphs.
Recombinant full-length His-tagged human CDK9 and CycT1, expressed in insect cells and purified by Ni-NTA affinity chromatography, were purchase from Invitrogen (Cat. No PV4131). As substrate for the kinase reaction biotinylated peptide biotin-Ttds-YISPLKSPYKISEG (C-terminus in amid form) was used which can be purchased e.g. form the company JERINI peptide technologies (Berlin, Germany).
(§1) For the assay 50 nl of a 100 fold concentrated solution of the test compound in DMSO was pipetted into a black low volume 384 well microtiter plate (Greiner Bio-One, Frickenhausen, Germany), 2 μl of a solution of CDK9/CycT1 in aqueous assay buffer [50 mM Tris/HCl pH 8.0, 10 mM MgCl2, 1.0 mM dithiothreitol, 0.1 mM sodium ortho-vanadate, 0.01% (v/v) Nonidet-P40 (Sigma)] were added and the mixture was incubated for 15 min at 22° C. to allow pre-binding of the test compounds to the enzyme before the start of the kinase reaction. Then the kinase reaction was started by the addition of 3 μl of a solution of adenosine-tri-phosphate (ATP, 3.3 mM=>final conc. in the 5 μl assay volume is 2 mM) and substrate (1.67 μM=>final conc. in the 5 μl assay volume is 1 μM) in assay buffer and the resulting mixture was incubated for a reaction time of 25 min at 22° C. The concentration of CDK9/CycT1 was adjusted depending of the activity of the enzyme lot and was chosen appropriate to have the assay in the linear range, typical concentrations were in the range of 0.5 μg/ml. The reaction was stopped by the addition of 5 μl of a solution of TR-FRET detection reagents (0.2 μM streptavidine-XL665 [Cisbio Bioassays, Codolet, France] and 1 nM anti-RB(pSer807/pSer811)-antibody from BD Pharmingen [#558389] and 1.2 nM LANCE EU-W1024 labeled anti-mouse IgG antibody [Perkin-Elmer, product no. AD0077]) in an aqueous EDTA-solution (100 mM EDTA, 0.2% (w/v) bovine serum albumin in 100 mM HEPES/NaOH pH 7.0).
The resulting mixture was incubated 1 h at 22° C. to allow the formation of complex between the phosphorylated biotinylated peptide and the detection reagents. Subsequently the amount of phosphorylated substrate was evaluated by measurement of the resonance energy transfer from the Eu-chelate to the streptavidine-XL. Therefore, the fluorescence emissions at 620 nm and 665 nm after excitation at 350 nm was measured in a HTRF reader, e.g. a Rubystar (BMG Labtechnologies, Offenburg, Germany) or a Viewlux (Perkin-Elmer). The ratio of the emissions at 665 nm and at […] was taken as the measure for the amount of phosphorylated substrate. The data were normalised (enzyme reaction without inhibitor=0% inhibition, all other assay components but no enzyme=100% inhibition).

A further assay concerns the target T2, CDK2/CycE (Homo sapiens, UniProt P24941).
T2 construct: GST; purchased ProQinase GmbH (Freiburg, Germany); host or cells: insect cells (Sf9)
In words: CDK2/CycE high ATP kinase assay (Method 2b). The assay is classed as biochemical. Conditions: 2 mM ATP. The method, then:
2b. CDK2/CycE High ATP Kinase Assay:
CDK2/CycE-inhibitory activity of compounds of the present invention at 2 mM adenosine-tri-phosphate (ATP) was quantified employing the CDK2/CycE TR-FRET (TR-FRET=Time Resolved Fluorescence Energy Transfer) assay as described in the following paragraphs.
Recombinant fusion proteins of GST and human CDK2 and of GST and human CycE, expressed in insect cells (Sf9) and purified by Glutathion-Sepharose affinity chromatography, were purchase from ProQinase GmbH (Freiburg, Germany) As substrate for the kinase reaction biotinylated peptide biotin-Ttds-YISPLKSPYKISEG (C-terminus in amid form) was used which can be purchased e.g. form the company JERINI peptide technologies (Berlin, Germany).
as §1, with “of CDK2/CycE” for “of CDK9/CycT1”, “solution ATP (3.33” for “solution of adenosine-tri-phosphate (ATP, 3.3”, “substrate (1.25” for “substrate (1.67”, “is 0.75” for “is 1”, “of 15 ng/ml.” for “of 0.5 μg/ml.”, “no. AD0077, as an alternative a Terbium-cryptate-labeled anti-mouse IgG antibody from Cisbio Bioassays can be used])” for “no. AD0077])”
The resulting mixture was incubated 1 h at 22° C. to allow the formation of complex between the phosphorylated biotinylated peptide and the detection reagents. Subsequently the amount of phosphorylated substrate was evaluated by measurement of the resonance energy transfer from the Eu-chelate to the streptavidine-XL. Therefore, the fluorescence emissions at 620 nm and 665 nm after excitation at 350 nm were measured in a TR-FRET reader, e.g. a Rubystar (BMG Labtechnologies, Offenburg, Germany) or a Viewlux (Perkin-Elmer). The ratio of the emissions at 665 nm and at […] was taken as the measure for the amount of phosphorylated substrate. The data were normalised (enzyme reaction without inhibitor=0% inhibition, all other assay components but no enzyme=100% inhibition).

Structures are written as SMILES.

T1 sequence (P50750 whole entry): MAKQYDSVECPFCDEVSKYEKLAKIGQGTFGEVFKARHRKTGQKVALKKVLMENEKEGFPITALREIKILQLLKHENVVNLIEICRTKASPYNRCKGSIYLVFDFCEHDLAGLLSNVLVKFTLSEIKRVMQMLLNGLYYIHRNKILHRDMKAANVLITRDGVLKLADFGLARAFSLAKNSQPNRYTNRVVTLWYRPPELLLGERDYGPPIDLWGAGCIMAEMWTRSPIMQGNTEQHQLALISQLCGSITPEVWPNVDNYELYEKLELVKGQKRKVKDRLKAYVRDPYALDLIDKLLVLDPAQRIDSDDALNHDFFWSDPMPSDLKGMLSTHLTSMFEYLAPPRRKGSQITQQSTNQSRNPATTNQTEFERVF
T1 sequence (O60563 whole entry partner): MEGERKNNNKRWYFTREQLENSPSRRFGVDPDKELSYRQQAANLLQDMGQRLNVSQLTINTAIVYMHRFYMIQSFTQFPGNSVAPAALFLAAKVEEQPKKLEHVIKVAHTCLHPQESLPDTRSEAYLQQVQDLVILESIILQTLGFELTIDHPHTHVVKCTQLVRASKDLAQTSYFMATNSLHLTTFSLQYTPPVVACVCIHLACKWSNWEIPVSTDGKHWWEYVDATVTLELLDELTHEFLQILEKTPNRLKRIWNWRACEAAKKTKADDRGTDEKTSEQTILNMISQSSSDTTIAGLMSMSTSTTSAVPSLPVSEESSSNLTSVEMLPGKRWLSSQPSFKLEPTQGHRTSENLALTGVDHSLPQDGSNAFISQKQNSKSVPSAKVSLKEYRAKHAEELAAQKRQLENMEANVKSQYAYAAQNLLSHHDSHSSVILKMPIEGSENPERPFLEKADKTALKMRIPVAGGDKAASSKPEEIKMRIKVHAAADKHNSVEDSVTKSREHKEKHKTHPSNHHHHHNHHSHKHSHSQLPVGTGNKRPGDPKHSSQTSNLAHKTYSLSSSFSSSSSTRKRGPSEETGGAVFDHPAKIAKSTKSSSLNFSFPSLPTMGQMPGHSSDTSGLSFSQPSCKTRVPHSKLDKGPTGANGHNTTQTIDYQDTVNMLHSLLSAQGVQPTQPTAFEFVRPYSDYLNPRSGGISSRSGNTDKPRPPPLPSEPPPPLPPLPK

Consider `COc1cc(F)ccc1-c1cc(Nc2cc(CS(C)(=N)=O)ccn2)ncn1` (racemic) [Example 1, (rac)-6-(4-Fluoro-2-methoxyphenyl)-N-{4-[(S-methylsulfonimidoyl)methyl]pyridin-2-yl}pyrimidin-4-amine], for which the IC50 on CDK9/CycT1 is 49 nM; at CDK2/CycE, 1510 nM.
Take `COc1cc(F)ccc1-c1cc(Nc2cc(CS(C)(=N)=O)cc(Cl)n2)ncn1` (racemic) [Example 4, (rac)-N-{6-Chloro-4-[(S-methylsulfonimidoyl)methyl]pyridin-2-yl}-6-(4-fluoro-2-methoxyphenyl)pyrimidin-4-amine]: the IC50 amounted to 11 nM at CDK9/CycT1 and 1130 nM on CDK2/CycE.
On the same counts, the results for `COc1cc(F)ccc1-c1cc(Nc2cc(CS(C)(=N)=O)cc(C)n2)ncn1` (racemic) [Example 7, (rac)-6-(4-Fluoro-2-methoxyphenyl)-N-{6-methyl-4-[(S-methylsulfonimidoyl)methyl]pyridin-2-yl}pyrimidin-4-amine] are 4 nM and 3630 nM.
For `COc1cc(F)ccc1-c1cc(Nc2cc(CS(C)(=N)=O)cc(C(F)(F)F)n2)ncn1` (racemic) [Example 10, (rac)-6-(4-Fluoro-2-methoxyphenyl)-N-{4-[(S-methylsulfonimidoyl)methyl]-6-(trifluoromethyl)pyridin-2-yl}pyrimidin-4-amine], in that order: 3 nM and 797 nM.
On the same counts, the results for `COc1cc(F)ccc1-c1cc(Nc2cc(CS(C)(=N)=O)ccn2)ncn1` (single isomer, unassigned) [Example 2, 6-(4-Fluoro-2-methoxyphenyl)-N-{4-[(S-methylsulfonimidoyl)methyl]pyridin-2-yl}pyrimidin-4-amine] are 30 nM and 1540 nM.
Turning to `COc1cc(F)ccc1-c1cc(Nc2cc(CS(C)(=N)=O)ccn2)ncn1` (single isomer, unassigned) [Example 3, 6-(4-Fluoro-2-methoxyphenyl)-N-{4-[(S-methylsulfonimidoyl)methyl]pyridin-2-yl}pyrimidin-4-amine], the IC50 against CDK9/CycT1 turned out to be 10 nM; on CDK2/CycE it was 1040 nM.
For `COc1cc(F)ccc1-c1cc(Nc2cc(CS(C)(=N)=O)cc(Cl)n2)ncn1` (single isomer, unassigned) [Example 5, N-{6-Chloro-4-[(S-methylsulfonimidoyl)methyl]pyridin-2-yl}-6-(4-fluoro-2-methoxyphenyl)pyrimidin-4-amine], in that order: 9 nM and 1420 nM.
`COc1cc(F)ccc1-c1cc(Nc2cc(CS(C)(=N)=O)cc(Cl)n2)ncn1` (single isomer, unassigned) [Example 6, N-{6-Chloro-4-[(S-methylsulfonimidoyl)methyl]pyridin-2-yl}-6-(4-fluoro-2-methoxyphenyl)pyrimidin-4-amine]: the results for the IC50 against CDK9/CycT1 and on CDK2/CycE were 5 nM and 1820 nM, respectively.
For `COc1cc(F)ccc1-c1cc(Nc2cc(CS(C)(=N)=O)cc(C)n2)ncn1` (single isomer, unassigned) [Example 8, 6-(4-Fluoro-2-methoxyphenyl)-N-{6-methyl-4-[(S-methylsulfonimidoyl)methyl]pyridin-2-yl}pyrimidin-4-amine], in that order: 6 nM and 6330 nM.
Take `COc1cc(F)ccc1-c1cc(Nc2cc(CS(C)(=N)=O)cc(C)n2)ncn1` (single isomer, unassigned) [Example 9, 6-(4-Fluoro-2-methoxyphenyl)-N-{6-methyl-4-[(S-methylsulfonimidoyl)methyl]pyridin-2-yl}pyrimidin-4-amine]: the figures for the IC50 on CDK9/CycT1 and against CDK2/CycE were 2 nM and 4400 nM, respectively.
